{"source": "patent US12534432B2", "about": "“Trisulfide compound” (Kyowa Pharma Chemical Co., Ltd., priority 2020, dated 2026)", "assay": "hydrogen sulfide-trapping ability by methylene blue spectrophotometry", "settings": "room temperature", "protocol": "The presence or absence of a hydrogen sulfide-trapping ability (hydrogen sulfide elimination effect) of pantethine trisulfide (PANSSS) was evaluated through methylene blue spectrophotometry.\nSodium sulfide nonahydrate (Na2S·9H2O) was dissolved in purified water to prepare a 50 μmol/L sodium sulfide nonahydrate solution, which was used as a H2S standard solution.\np-Aminodimethylaniline was dissolved in 10 N sulfuric acid to prepare 1 mmol/L DPDA solution.\nIron (III) chloride hexahydrate was dissolved in 1% sulfuric acid to prepare a 3 mmol/L FeCl3·6H2O solution.\nA 0.5 mmol/L pantethine trisulfide solution was prepared by dissolving pantethine trisulfide in 25 mmol/L phosphate buffer (PBS, pH 7).\n10 mL of the H2S standard solution (0.5 μmol, standard) was added to a stoppered test tube and stirred. 1 mL (0.5 μmol, 1 eq.) of PBS (blank) or the pantethine trisulfide solution was added to this solution and stirred for a predetermined time (0, 5, 15 or 30 minutes). After stirring, 1 mL (1 μmol, 2 eq.) of the DPDA solution and 1 mL (3 μmol, 6 eq.) of the FeCl3·6H2O solution were added thereto and further stirred, and the absorbance (wavelength: 668 nm) of the solution was measured after the absorbance of the solution stopped changing (that is, after color development due to methylene blue production was completed). This test was conducted under the conditions of room temperature."}
{"smiles": "CC(C)(CO)[C@@H](O)C(=O)NCCC(=O)NCCSSSCCNC(=O)CCNC(=O)[C@H](O)C(C)(C)CO", "note": "[pantethine trisulfide]", "values": [{"measurement": "absorbance (wavelength: 668 nm) compared to the blank", "setting": "0.5 μmol H2S, 1 eq. pantethine trisulfide in PBS pH 7, stirring 0, 5, 15 or 30 minutes", "result": "the longer the contact time (reaction time) between H2S and pantethine trisulfide, the lower the absorbance compared to the blank"}, {"measurement": "hydrogen sulfide-trapping ability (hydrogen sulfide elimination effect)", "setting": "methylene blue spectrophotometry, 1 eq. to H2S", "result": "had a hydrogen sulfide-trapping ability"}]}
